Source: the supplement of paper PMC13380429

Tests used:
Conditions in all cases: 72 h
Vero E6 [1] = experiment: relative viability EC50 (midpoint between 100% and the lowest measured viability); higher = less toxic
Caco-2 [2] = experiment: as above
HepG2 [3] = experiment: as above
U2OS [4] = experiment: as above
Vero E6 [5] = experiment: drug sensitivity score (DSS) for viability; higher = more toxic; extreme values may be limits of the assay
Caco-2 [6] = experiment: as above
HepG2 [7] = experiment: as above
U2OS [8] = experiment: as above
Vero E6 [9] = experiment: cell viability relative to DMSO; higher = less toxic
Caco-2 [10] = experiment: as above
HepG2 [11] = experiment: as above
U2OS [12] = experiment: as above
Calu-3 [13] = experiment: drug sensitivity score (DSS) for viability; higher = more toxic; extreme values may be limits of the assay
Calu-3 [14] = experiment: cell viability relative to DMSO; higher = less toxic
Calu-3 [15] = experiment: relative viability EC50 (midpoint between 100% and the lowest measured viability); higher = less toxic

SMILES	relative viability EC50 (Vero E6 [1])	relative viability EC50 (Caco-2 [2])	relative viability EC50 (HepG2 [3])	relative viability EC50 (U2OS [4])	drug sensitivity score (Vero E6 [5])	drug sensitivity score (Caco-2 [6])	drug sensitivity score (HepG2 [7])	drug sensitivity score (U2OS [8])	cell viability (Vero E6 [9]; 1 nM)	cell viability (Vero E6 [9]; 10 nM)	cell viability (Vero E6 [9]; 100 nM)	cell viability (Vero E6 [9]; 1000 nM)	cell viability (Vero E6 [9]; 10000 nM)	cell viability (Caco-2 [10]; 1 nM)	cell viability (Caco-2 [10]; 10 nM)	cell viability (Caco-2 [10]; 100 nM)	cell viability (Caco-2 [10]; 1000 nM)	cell viability (Caco-2 [10]; 10000 nM)	cell viability (HepG2 [11]; 1 nM)	cell viability (HepG2 [11]; 10 nM)	cell viability (HepG2 [11]; 100 nM)	cell viability (HepG2 [11]; 1000 nM)	cell viability (HepG2 [11]; 10000 nM)	cell viability (U2OS [12]; 1 nM)	cell viability (U2OS [12]; 10 nM)	cell viability (U2OS [12]; 100 nM)	cell viability (U2OS [12]; 1000 nM)	cell viability (U2OS [12]; 10000 nM)	drug sensitivity score (Calu-3 [13])	cell viability (Calu-3 [14]; 1 nM)	cell viability (Calu-3 [14]; 10 nM)	cell viability (Calu-3 [14]; 100 nM)	cell viability (Calu-3 [14]; 1000 nM)	cell viability (Calu-3 [14]; 10000 nM)	relative viability EC50 (Calu-3 [15])
CCCCCCCCc1ccc(-c2ccc(C(=O)O)cc2)cc1	> 10 µM	> 10 µM	> 10 µM	> 10 µM	0	0	0	0	101%	99.7%	97.7%	97.7%	106%	100%	107%	81.5%	98.7%	97.3%	101%	99.8%	97.2%	101%	97.3%	99%	106%	96.8%	93%	95%	–	–	–	–	–	–	–
COc1ccc(C2CC(c3c(O)cc(C)oc3=O)=NCCS2)c(OC)c1 (configuration not stated)	0.391 µM	0.73 µM	0.328 µM	1.1 µM	11.8	7.1	11.2	7.1	100%	105%	101%	35.9%	31%	103%	98.7%	99.5%	64.4%	47.4%	94.9%	106%	92.8%	44.4%	36.6%	102%	97%	93.9%	69.8%	33.2%	4.4	105%	105%	97.7%	80.4%	57%	–
O=C(C[C@H]1CC(c2ccc(F)cc2F)=NO1)N1CCOCC1 (racemic) [CPSI-1306-(+/-)]	> 10 µM	> 10 µM	> 10 µM	> 10 µM	0	0	0	0	95.6%	97.4%	93.6%	95%	106%	93.7%	105%	107%	90.9%	104%	101%	107%	96.4%	95.6%	104%	95.7%	99.3%	99.1%	102%	104%	–	–	–	–	–	–	–
CCCCCCCCCCCCCCCCCCCCCC(=O)O [AGP-103]	> 10 µM	> 10 µM	> 10 µM	> 10 µM	0	0	0	0	105%	106%	100%	97.9%	99.1%	104%	90.4%	96.5%	106%	99.9%	97.6%	94.8%	98.5%	95.5%	92.7%	99.8%	93.9%	98.3%	101%	102%	–	–	–	–	–	–	–
COc1cc2c(cc1NS(=O)(=O)c1ccc(Br)cc1C)n(C)c(=O)n2C [OF-1]	> 10 µM	> 10 µM	1.69 µM	> 10 µM	0.1	2.1	5.1	0.3	105%	102%	96.4%	99.7%	88%	94%	95.3%	102%	86.2%	78.2%	96.5%	101%	97.1%	87.8%	42.3%	99.1%	94.6%	103%	93%	88.3%	–	–	–	–	–	–	–
CN[C@@H]1[C@@H](O[C@H]2O[C@H](CO)[C@@H](N)[C@H](O)[C@H]2O)O[C@H]2C[C@@H](N)[C@@H](O[C@H]3[C@H](O)[C@@H](O)[C@H](N)C[C@@H]3N)O[C@@H]2[C@@H]1O [apramycin]	> 10 µM	> 10 µM	> 10 µM	> 10 µM	0	0	0	0	102%	95.3%	93.2%	99.9%	102%	98%	89%	104%	104%	92.9%	106%	98.1%	107%	99.3%	97.5%	105%	100%	92.8%	104%	99.9%	2.1	97.8%	99.6%	100%	91.5%	74.8%	–
CC(C)(c1ccc(O)cc1)c1ccc(O)cc1 [bisphenol-A]	> 10 µM	> 10 µM	> 10 µM	> 10 µM	0.1	0.1	0	0	107%	105%	99.2%	98%	88.6%	92.2%	111%	102%	97.3%	88.8%	98.7%	94.4%	103%	94.6%	106%	101%	109%	99.6%	107%	102%	–	–	–	–	–	–	–
O=P1(N(CCCl)CCCl)NCCCO1 (configuration not stated) [cyclophosphamide]	> 10 µM	> 10 µM	> 10 µM	> 10 µM	0	0	0	0	97.6%	99.8%	99.4%	98.2%	94%	100%	100%	95.6%	86.7%	98.6%	91.9%	98.9%	91.5%	99.8%	105%	102%	102%	101%	95.5%	99.2%	–	–	–	–	–	–	–
CNc1cc2[nH]c(=O)n(-c3ccc(NC(=O)NS(=O)(=O)c4ccc(Cl)s4)cc3)c(=O)c2cc1F [elinogrel]	> 10 µM	> 10 µM	> 10 µM	> 10 µM	0	0	0	0	94.6%	95.2%	95.2%	95.3%	100%	95.7%	103%	97.2%	98.3%	101%	100%	91.4%	89.7%	94.1%	99.8%	95.6%	101%	100%	103%	104%	–	–	–	–	–	–	–
CON [methoxyamine]	> 10 µM	> 10 µM	> 10 µM	> 10 µM	0	0	0	0	108%	94.6%	99.3%	106%	106%	102%	102%	99.9%	96.9%	100%	110%	110%	102%	99.7%	96.8%	99.2%	103%	96.7%	103%	96.4%	–	–	–	–	–	–	–
COc1ccc2cc([C@H](C)C(=O)O)ccc2c1 [naproxen]	> 10 µM	> 10 µM	> 10 µM	> 10 µM	0	0	0	0	109%	97.8%	98.2%	101%	100%	95.1%	101%	102%	94.9%	95.3%	106%	103%	104%	100%	99.4%	101%	102%	98.4%	96.8%	102%	0	–	–	–	–	–	> 10 µM
O=C(O)CCCNC(=O)c1cccnc1 [pikamilone]	> 10 µM	> 10 µM	> 10 µM	> 10 µM	0	0	0	0	102%	105%	102%	102%	98.4%	99.8%	98.3%	98.4%	95.6%	99.8%	107%	113%	99.8%	110%	94.6%	106%	97.4%	103%	99.4%	104%	–	–	–	–	–	–	–
CC(C)(Oc1ccc(Cl)cc1)C(=O)N1CSCC1C(=O)O (configuration not stated) [timofibrate]	> 10 µM	> 10 µM	> 10 µM	> 10 µM	0	0	0	0	99.5%	104%	96%	94.8%	105%	87.1%	99.6%	95.7%	98.9%	103%	99%	102%	108%	96.8%	113%	95.5%	105%	98.2%	103%	104%	–	–	–	–	–	–	–
Cc1cc(Nc2ncnc3ccc(NC4=NC(C)(C)CO4)cc23)ccc1Oc1ccn2ncnc2c1 [tucatinib]	> 10 µM	–	> 10 µM	> 10 µM	2	3.8	0.2	0.1	99.4%	95.8%	95.1%	86.9%	75.6%	98.9%	103%	99.8%	92.5%	52%	101%	96%	103%	98.4%	87.1%	100%	104%	95.3%	98.2%	87.9%	13.7	105%	93.3%	70.7%	47.3%	28.4%	0.191 µM
